Data as given in PubChem BioAssay AID651798 (Broad Institute, 2012).
Calls of active or inactive are those of the source.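 Rule for the calls: active = fitted AC50 at or below twice the top valid dose, with signal falling as dose rises; inconclusive = flat fit between -30 and -70%, or poor fit; inactive = the rest, including rising effects.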

Molecular target: Kelch-like ECH-associated protein 1 (Homo sapiens) (UniProt Q14145)
Assay: disruptors of Keap1 Kelch-Nrf2 peptide binding – biochemical, fluorescence polarization, dry powder samples, dose response (AID 651798)
Details: Keap1 Kelch/FITC-Nrf2 peptide fluorescence polarization

Chain of Kelch-like ECH-associated protein 1 (Homo sapiens) (Q14145 whole entry, looked up): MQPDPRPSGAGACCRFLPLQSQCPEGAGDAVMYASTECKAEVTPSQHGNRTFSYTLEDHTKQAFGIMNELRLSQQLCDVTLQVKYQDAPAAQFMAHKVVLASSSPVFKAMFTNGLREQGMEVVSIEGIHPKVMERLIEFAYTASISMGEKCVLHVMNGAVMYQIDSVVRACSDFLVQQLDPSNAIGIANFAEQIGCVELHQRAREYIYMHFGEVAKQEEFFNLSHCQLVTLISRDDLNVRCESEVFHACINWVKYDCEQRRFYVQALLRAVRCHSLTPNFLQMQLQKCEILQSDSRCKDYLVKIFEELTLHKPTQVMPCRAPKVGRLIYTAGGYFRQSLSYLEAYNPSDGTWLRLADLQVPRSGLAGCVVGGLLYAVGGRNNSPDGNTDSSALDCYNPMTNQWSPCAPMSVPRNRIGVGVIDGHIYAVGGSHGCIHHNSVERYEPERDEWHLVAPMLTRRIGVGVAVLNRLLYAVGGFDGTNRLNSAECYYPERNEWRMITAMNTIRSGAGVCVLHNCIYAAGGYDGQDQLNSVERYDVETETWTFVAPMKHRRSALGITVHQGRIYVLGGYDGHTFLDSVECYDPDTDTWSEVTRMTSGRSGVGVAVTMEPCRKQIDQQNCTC

Row | Compound | activity change, negative = inhibition (at 50 µM (top of the series)) | other results
1 | COC(=O)C1CCCCC1C(=O)N1CCc2ccccc2C1CN1C(=O)c2ccccc2C1=O (stereo not drawn) | inactive | –
2 | O=S(=O)(Nc1nc(NCC2CCCCC2)nc2ccccc12)c1ccccc1 | inactive | –
3 | Cc1ccccc1S(=O)(=O)Nc1cc(C(C(=O)OC(C)C)C(=O)C(F)(F)F)c(O)c2ccccc12 (stereo not drawn) | – | AC50: 3.2 µM
4 | O=C(O)CCC(=O)N1CCc2ccccc2C1CN1C(=O)c2ccccc2C1=O (stereo not drawn) | inactive | –
5 | C=CC(=O)NC[C@@H]1c2ccccc2CCN1C(=O)[C@@H]1CCCC[C@@H]1C(=O)O | inactive | –
6 | O=C(O)CCCC(=O)N1CCc2ccccc2C1CN1C(=O)c2ccccc2C1=O (stereo not drawn) | inactive | –
7 | O=C(O)[C@H]1CCCC[C@H]1C(=O)NC(CN1C(=O)c2ccccc2C1=O)c1ccccc1 (stereo partly drawn) | inactive | –
8 | O=C(Oc1cc(CN2C(=O)c3ccccc3C2=O)c2ccccc2[n+]1[O-])c1cccc(Cl)c1 | inactive | –
9 | O=C(O)C1CCCCC1C(=O)N1CCCCC1CN1C(=O)c2ccccc2C1=O (stereo not drawn) | inactive | –
10 | CC(=O)Nc1cc(NS(=O)(=O)c2c(C)cc(C)cc2C)c2ccccc2c1O | – | AC50: 15.2 µM
11 | CCOC(=O)C(C(=O)OCC)c1cc(CNS(=O)(=O)c2ccc(C)cc2C)c2ccccc2n1 | inactive | –
12 | Cc1ccc(S(=O)(=O)NNc2nc(NCC(N)=O)nc3ccccc23)cc1 | inactive | –
13 | O=C1c2ccccc2C(=O)N1CC1=NCCc2ccccc21 | inactive | –
14 | O=C(O)[C@H]1CCCC[C@H]1C(=O)N1CCc2ccccc2[C@H]1CNS(=O)(=O)c1ccc([N+](=O)[O-])cc1 | inactive | –
15 | CC(C)OC(=O)C(C(=O)C(F)(F)F)c1cc(NS(=O)(=O)c2ccccc2)c2ccccc2c1O (stereo not drawn) | – | AC50: 21.8 µM
16 | Cc1cc(C)c(S(=O)(=O)Nc2ncnc3ccccc23)c(C)c1 | inactive | –
17 | O=C(O)C1CCCCC1C(=O)N1CCc2ccccc2[C@H]1C(=O)NC12CC3CC(CC(C3)C1)C2 (stereo partly drawn) | inactive | –
18 | O=C(O)[C@H]1CCCC[C@H]1C(=O)N1CCc2ccccc2[C@H]1CNc1nc(Cl)nc2ccccc12 | inactive | –
19 | O=C(O)[C@@H]1CCCN1C(=O)N1CCc2ccccc2[C@H]1CN1C(=O)c2ccccc2C1=O | inactive | –
20 | O=C(O)C1CCCCC1C(=O)N1CCc2ccccc2C1CN1C(=O)Cc2ccccc2C1=O (stereo not drawn) | – | AC50: > 100 µM (inactive)
21 | O=C(O)[C@H]1CCCC[C@H]1C(=O)N1CCc2ccccc2C1 (racemic) | inactive | –
22 | C[C@H](NC(=O)C1CCCC[C@H]1C(=O)O)c1ccccc1 (mixture of isomers) | inactive | –
23 | CCOC(=O)C(C(=O)OCC)c1cc(CN2C(=O)c3ccccc3C2=O)c2ccccc2n1 | inactive | –
24 | O=C(O)C1CCCCC1C(=O)NCC1c2ccccc2CCN1C(=O)Cc1ccccc1 (stereo not drawn) | inactive | –
25 | CCOC(=O)C(C(=O)OCC)c1nc(NS(=O)(=O)c2c(C)cc(C)cc2C)c2ccccc2n1 | inactive | –
26 | O=C(O)C1CCCCC1C(=O)Nc1ccccc1CN1C(=O)c2ccccc2C1=O (stereo not drawn) | inactive | –

Row | Compound | activity change, negative = inhibition (at 50 µM (top of the series)) | other results
27 | NC(=O)c1ccccc1C(=O)NC[C@@H]1c2ccccc2CCN1C(=O)[C@@H]1CCCC[C@@H]1C(=O)O | – | AC50: > 100 µM (inactive)
28 | Cc1cc(C)c(S(=O)(=O)Nc2cc(C(C(=O)OCc3ccccc3)C(=O)OCc3ccccc3)c(O)c3ccccc23)c(C)c1 | inactive | –
29 | Cc1ccc(S(=O)(=O)Nc2cc(C(C(=O)OC(C)C)C(=O)C(F)(F)F)c(O)c3ccccc23)cc1 (stereo not drawn) | – | AC50: 7.25 µM
30 | COC(=O)C(C(=O)OC)c1cc(NS(=O)(=O)c2c(C)cc(C)cc2C)c2ccccc2c1O | – | AC50: 34.2 µM
31 | CCOC(=O)Cc1nc(NS(=O)(=O)c2c(C)cc(C)cc2C)c2ccccc2n1 | inactive | –
32 | COC(=O)[C@@H]1CCCC[C@@H]1C(=O)N1CCc2ccccc2[C@@H]1CN1C(=O)c2ccccc2C1=O | inactive | –
33 | O=C(NC[C@@H]1c2ccccc2CCN1C(=O)[C@@H]1CCCC[C@@H]1C(=O)O)c1ccc(CN2CCOCC2)cc1 | inactive | –
34 | O=C(NCCO)c1ccccc1C(=O)NC[C@@H]1c2ccccc2CCN1C(=O)C1CCCCC1C(=O)O (stereo partly drawn) | inactive | –
35 | O=C1c2ccccc2C(=O)N1C[C@@H]1c2ccccc2CCN1C(=O)C1CCCCC1 | inactive | –
36 | O=C(Cc1ccccc1)NC[C@@H]1c2ccccc2CCN1C(=O)[C@@H]1CCCC[C@@H]1C(=O)O | inactive | –
37 | NC(=O)[C@H]1CCCC[C@H]1C(=O)N1CCc2ccccc2[C@H]1CN1C(=O)c2ccccc2C1=O | inactive | –
38 | COC(=O)CNc1nc(NS(=O)(=O)c2c(C)cc(C)cc2C)c2ccccc2n1 | inactive | –
39 | Cc1cc(C)c(S(=O)(=O)Nc2cc(C(C(=O)OC(C)C)C(=O)C(F)(F)F)c(O)c3ccccc23)c(C)c1 (stereo not drawn) | – | AC50: 0.673 µM
40 | Cc1ccc(S(=O)(=O)NNc2nc(C(C(=O)OC(C)C)C(=O)C(F)(F)F)nc3ccccc23)cc1 (stereo not drawn) | inactive | –
41 | COc1ccccc1CCNC(=O)[C@@H]1c2ccccc2CCN1C(=O)C1CCCCC1C(=O)O (stereo partly drawn) | inactive | –
42 | O=C(NC[C@@H]1c2ccccc2CCN1C(=O)[C@@H]1CCCC[C@@H]1C(=O)O)c1ccccc1CO | inactive | –
43 | O=C(O)Cc1ccccc1C(=O)N1CCc2ccccc2[C@H]1CN1C(=O)c2ccccc2C1=O | – | AC50: 28.3 µM
44 | O=C(O)C1CCCCC1C(=O)N1CCc2ccccc2[C@H]1C(=O)NCCc1ccccc1 (stereo partly drawn) | inactive | –
45 | O=C(O)[C@H]1C2C=CC(C2)[C@H]1C(=O)N1CCc2ccccc2C1CN1C(=O)c2ccccc2C1=O (stereo partly drawn) | – | AC50: > 100 µM (inactive)
46 | O=C(O)[C@H]1CCCC[C@H]1C(=O)N1CCc2ccccc2[C@H]1CNS(=O)(=O)c1ccccc1 | inactive | –
47 | Cc1cc(C)c(S(=O)(=O)Nc2nc(C(C(=O)OC(C)C)C(=O)C(F)(F)F)nc3ccccc23)c(C)c1 (stereo not drawn) | inactive | –
48 | C[C@@H](NC(=O)C1CCCC[C@H]1C(=O)O)c1ccccc1 (mixture of isomers) | inactive | –
49 | O=C(O)[C@H]1CCCC[C@H]1C(=O)N1CCC2=C(CCCC2)C1CN1C(=O)c2ccccc2C1=O (stereo partly drawn) | inactive | AC50: > 100 µM (inactive)
50 | O=C(O)[C@H]1CCCC[C@H]1C(=O)N1CCc2ccccc2C1CCN1C(=O)c2ccccc2C1=O (stereo partly drawn) | inactive | –
51 | O=C(O)CC(=O)N1CCc2ccccc2C1CN1C(=O)c2ccccc2C1=O (stereo not drawn) | inactive | –
52 | O=C1c2ccccc2C(=O)N1CC1c2ccccc2CCN1C(=O)Cc1ccccc1 (stereo not drawn) | – | activity change, negative = inhibition (at 12 µM (top of the series)): inactive

Row | Compound | activity change, negative = inhibition (at 50 µM (top of the series)) | other results
53 | O=C(O)/C=C\C(=O)N1CCc2ccccc2C1CN1C(=O)c2ccccc2C1=O (stereo not drawn) | inactive | –
54 | O=C1c2ccccc2C(=O)N1C[C@@H]1c2ccccc2CCN1C(=O)OCc1ccccc1 | inactive | –
55 | COC(=O)[C@H]1CCCC[C@H]1C(=O)N1CCc2ccccc2[C@H]1CN1C(=O)c2ccccc2C1=O | inactive | –
56 | Cc1ccc(S(=O)(=O)NC2=CC(=N[C@@H](C)C(=O)OC(C)(C)C)C(=O)c3ccccc32)c(C)c1 | inactive | –
57 | O=C(NC[C@@H]1c2ccccc2CCN1C(=O)[C@@H]1CCCC[C@@H]1C(=O)O)c1ccccc1 | inactive | –
58 | CC(C)CNc1nc(NS(=O)(=O)c2ccccc2)c2ccccc2n1 | inactive | –
59 | COC(=O)[C@@H]1CCCC[C@@H]1C(=O)N1CCc2ccccc2[C@H]1CN1C(=O)c2ccccc2C1=O | inactive | –
60 | Cc1ccc(S(=O)(=O)NC(=O)[C@@H]2c3ccccc3CCN2C(=O)[C@@H]2CCCC[C@@H]2C(=O)O)cc1 | inactive | AC50: > 100 µM (inactive)
61 | O=C(NC[C@@H]1c2ccccc2CCN1C(=O)[C@@H]1CCCC[C@@H]1C(=O)O)c1ccc(CCl)cc1 | inactive | –
62 | Cc1ccc(S(=O)(=O)Nc2cc(C(C(=O)OC(C)C)C(=O)C(F)(F)F)c(O)c3ccccc23)c(C)c1 (stereo not drawn) | – | AC50: 2.26 µM
63 | O=C(O)c1ccccc1C(=O)N1CCc2ccccc2C1CN1C(=O)c2ccccc2C1=O (stereo not drawn) | inactive | –
64 | Cc1ccc(S(=O)(=O)NC[C@@H]2c3ccccc3CCN2C(=O)[C@@H]2CCCC[C@@H]2C(=O)O)c(C)c1 | inactive | –
65 | O=C(NC[C@@H]1c2ccccc2CCN1C(=O)[C@@H]1CCCC[C@@H]1C(=O)O)OCC1c2ccccc2-c2ccccc21 | inactive | –
66 | Cc1cc(C)c(S(=O)(=O)Nc2nc(NCCO)nc3ccccc23)c(C)c1 | inactive | –
67 | Cc1ccc(S(=O)(=O)NNc2nc(N3CC(O)CC3C(=O)O)nc3ccccc23)cc1 (stereo not drawn) | inactive | –
68 | O=C(O)C1CCCCC1C(=O)N1CCc2ccccc2C1CN1C(=O)[C@H]2CCCC[C@H]2C1=O (stereo partly drawn) | – | AC50: > 100 µM (inactive)
69 | O=C(NCCCN1CCOCC1)c1ccccc1C(=O)NC[C@@H]1c2ccccc2CCN1C(=O)C1CCCCC1C(=O)O (stereo partly drawn) | inactive | –
70 | Cc1cc(C)c(S(=O)(=O)Nc2nc(N(C)C)nc3ccccc23)c(C)c1 | inactive | –
71 | O=C1c2ccccc2C(=O)N1C[C@H]1NCCc2ccccc21 | inactive | –
72 | COc1ccc(CCN=C2C=C(NS(=O)(=O)c3c(C)cc(C)cc3C)c3ccccc3C2=O)cc1 | inactive | –
73 | O=C(NCCc1ccccc1)c1ccccc1C(=O)NC[C@@H]1c2ccccc2CCN1C(=O)C1CCCCC1C(=O)O (stereo partly drawn) | – | AC50: > 100 µM (inactive)
74 | O=C(O)C1CCCCC1C(=O)N1CCc2ccccc2C1c1ccccc1 (stereo not drawn) | inactive | –
75 | O=C(O)C1CCCCC1C(=O)N1CCc2ccccc2C1CN1Cc2ccccc2C1=O (stereo not drawn) | – | AC50: 31.9 µM
76 | O=C(O)c1ccccc1C(=O)NC[C@@H]1c2ccccc2CCN1C(=O)[C@@H]1CCCC[C@@H]1C(=O)O | inactive | –
